Assay results reported in US11723903B2, “Treatment of schizophrenia” (Vanda Pharmaceuticals Inc., priority 2015, dated 2023).

Tests used:
[1] = post-marketing experience (post-approval use): adverse reactions in treated patients; format: in vivo; settings: for adverse reactions associated with treatment, identified during post-approval use: reported voluntarily from a population of uncertain size, frequency and causality not established
Excerpt: This invention comprises the discovery through post-marketing experience that treatment of patients with iloperidone has been associated with specific adverse reactions.
Without limiting this invention to a particular mechanism of action, the enumerated reactions may be hypersensitivity reactions. An aspect of this invention therefore comprises amending the contraindications section and/or the adverse events section of the iloperidone package insert, i.e., prescribing information, to read more or less as follows: • 4 CONTRAINDICATIONS • FANAPT is contraindicated in individuals with a known hypersensitivity reaction to the product. […] Because these reactions were reported voluntarily from a population of uncertain size, it is not possible to reliably estimate their frequency or establish a causal relationship to drug exposure.

[2] = prescribing information approved as of the priority date; cited from earlier work

COc1cc(C(C)=O)ccc1OCCCN1CCC(c2noc3cc(F)ccc23)CC1 [iloperidone]
relative frequency among the enumerated reactions [1]: rash was the most common followed by swollen tongue and swollen lip
adverse reactions associated with treatment, identified during post-approval use [1]: anaphylaxis, angioedema, throat tightness, oropharyngeal swelling, swelling of the face, lip, mouth, and tongue; urticaria, rash, and pruritus
adverse reactions associated with treatment, identified during post-approval use ([1]; listed as FANAPT): retrograde ejaculation and hypersensitivity reactions (including anaphylaxis, angioedema, throat tightness, oropharyngeal swelling, swelling of the face, lip, mouth, and/or tongue; urticaria, rash, and pruritus)
known hypersensitivity reactions to the product (Contraindications section) [2]: pruritus and urticaria
